Experimental data reported in patent publication US20250352606A1, “Pharmaceutical Composition for Promoting Neurogenesis and Method of Utilizing Gastrodia Elata Extract or Adenosine Analog for Promoting Neurogenesis” (AXR Pharma Inc., priority 2019, published 2025).

Assays:
SH-SY5Y cells = test: SA-β-gal staining of senescence SH-SY5Y cells; assay type: cell-based; settings: senescence SH-SY5Y cells treated for 24 hours
Method: SH-SY5Y cells (purchased from Taiwan and Bioresource Collection and Research Center (BCRC), 08C0066) was cultured in DMEM containing 10% fetal bovine serum, 100 U/ml penicillin and 100 µg/ml streptomycin in a carbon dioxide incubator. When SH-SY5Y cells were grown in a 100 mm culture dish to a fullness of 80%, subculture was carried out. […] Thus, the intracellular amount of SA-β-gal in the test cells were used as an indicator of cell senescence. These senescence cells were then used to perform the following aging-related cell experiments.
The senescence SH-SY5Y cells in embodiment 3 were treated with the G. elata crude extract TM1, the G. elata extract TM1-2 and N^6-(4-hydroxybenzyl) adenosine (T1-11) for 24 hours, then fixed with 4% formaldehyde, following by staining with SA-β-gal to evaluate the cell senescence level. […] Furthermore, the mechanism of cell senescence is currently known to be driven by two independent pathways, p53-p21 pathway and p16-Rb pathway. Both p21 and p16 are cyclin-dependent kinase inhibitors (CDKI), which prevent Rb from being phosphorylated so as to inhibit Rb. Consequently, the activity of E2F transcription factors is inhibited and the cell cycle is therefore blocked. p53, p63 and p73 can directly induce the activation of p21 protein, leading to arrest in cell cycle and cellular senescence.

[1] = system: p53, p16, p21 protein expression; test: Cellular senescence related molecules (p53, p16, p21) in SH-SY5Y cells; assay type: cell-based
[2] = system: D-galactose-induced aging mice; test: Nesting test and burrowing test in D-galactose-induced aging mice; assay type: in vivo; settings: D-galactose 0.2 g/kg s.c.; test substance oral gavage once a day for 6 weeks
Method: (§1) A total of nine groups with 6 each animal experiments were conducted. The animals in groups 1-9 were: 1: blank control group, 2: D-galactose (0.2 g/kg), 3: D-galactose (0.2 g/kg)+vitamin E (100 mg/kg), 4: D-galactose (0.2 g/kg)+TM1-2 low dose (5 mg/kg), 5: D-galactose (0.2 g kg)+TM1-2 mid-dose group (20 mg/kg), 6: D-galactose (0.2 g/kg)+TM1-2 high dose group (50 mg/kg), 7: D-galactose (0.2 g/kg)+T1-11 low dose group (1 mg/Kg), 8: D-galactose (0.2 g/kg)+T1-11 high dose group (10 mg/kg), 9: T1-11 (10 mg/kg). D-galactose was treated by subcutaneous injection (0.2 g/kg body weight), and G. elata extract TM1-2, T1-11 and vitamin E were orally administrated (oral gavage). The test substances were treated once a day, continuing for 6 weeks. When administering, in addition to the blank control group, each group was continued to treat with 0.2 g/kg (body weight) D-galactose subcutaneously injected via back neck, and the blank control group was subcutaneously injected with physiological saline. […]
In the Nesting Test (Deacon R (2012), Deacon RM (2006)), mice were given nesting materials, and they made nests in the corners of the cage and stayed in the nest. By using the nature of mouse nesting, nest cotton swabs were given, the scores of completing nesting were calculated, and the weight of the remaining unbroken cotton was weighed to assess the degree of mouse aging (FIGS. 5A and 5B). […]

[3] = system: D-galactose-induced aging mice; test: Morris water maze test in D-galactose-induced aging mice; assay type: in vivo; settings: D-galactose 0.2 g/kg s.c.; test substance oral gavage once a day for 6 weeks
Method: (§2) A total of nine groups with 6 each animal experiments were conducted. The animals in groups 1-9 were: 1: blank control group, 2: D-galactose (0.2 g/kg), 3: D-galactose (0.2 g/kg)+vitamin E (100 mg/kg), 4: D-galactose (0.2 g/kg)+TM1-2 low dose (5 mg/kg), 5: D-galactose (0.2 g kg)+TM1-2 mid-dose group (20 mg/kg), 6: D-galactose (0.2 g/kg)+TM1-2 high dose group (50 mg/kg), 7: D-galactose (0.2 g/kg)+T1-11 low dose group (1 mg/Kg), 8: D-galactose (0.2 g/kg)+T1-11 high dose group (10 mg/kg), 9: T1-11 (10 mg/kg). D-galactose was treated by subcutaneous injection (0.2 g/kg body weight), and G. elata extract TM1-2, T1-11 and vitamin E were orally administrated (oral gavage). The test substances were treated once a day, continuing for 6 weeks. When administering, in addition to the blank control group, each group was continued to treat with 0.2 g/kg (body weight) D-galactose subcutaneously injected via back neck, and the blank control group was subcutaneously injected with physiological saline. The vitamin E group was used as a positive control group.
Furthermore, the memory learning ability of mice was evaluated using the Morris water maze test (Vorhees C V, et al. (2006)) (FIG. 7A and FIG. 7B).

catalase (CAT) = test: Catalase activity in serum and brain tissue of D-galactose-treated animals; assay type: in vivo, mice; settings: serum, cortex and hippocampus; galactose-induced animals
Method: as §2, with “group. After observing their behavior, the animals are intraperitoneally injected with […] 5-bromo-2′-deoxyuridine (BrdU) continuously for one week. Then the animals were sacrificed to take their brain tissue and blood. […]” for “group.”

[4] = system: superoxide dismutase (SOD); test: Superoxide dismutase activity in serum and brain tissue of D-galactose-treated animals; assay type: in vivo, mice; settings: serum, cortex and hippocampus; galactose-induced animals
Method: as §2, with “group. After observing their behavior, the animals are intraperitoneally injected with […] 5-bromo-2′-deoxyuridine (BrdU) continuously for one week. Then the animals were sacrificed to take their brain tissue and blood. […]” for “group.”

[5] = system: lipid peroxidation (malondialdehyde, MDA); test: Lipid peroxidation in serum and brain tissue of D-galactose-treated animals; assay type: in vivo, mice; settings: serum, cortex and hippocampus; galactose-induced animals
Method: as §2, with “group. After observing their behavior, the animals are intraperitoneally injected with […] 5-bromo-2′-deoxyuridine (BrdU) continuously for one week. Then the animals were sacrificed to take their brain tissue and blood. […]” for “group.”

[6] = system: glutathione peroxidase (GSH-Px); test: Glutathione peroxidase in serum and brain tissue of D-galactose-treated animals; assay type: in vivo, mice; settings: serum, cortex and hippocampus; galactose-induced animals
Method: as §2, with “group. After observing their behavior, the animals are intraperitoneally injected with […] 5-bromo-2′-deoxyuridine (BrdU) continuously for one week. Then the animals were sacrificed to take their brain tissue and blood. […]” for “group.”

[7] = system: glucose-6-phosphate dehydrogenase (G6PD); test: Glucose-6-phosphate dehydrogenase in serum and brain tissue of D-galactose-treated animals; assay type: in vivo, mice; settings: serum, cortex and hippocampus; galactose-induced animals
Method: as §2, with “group. After observing their behavior, the animals are intraperitoneally injected with […] 5-bromo-2′-deoxyuridine (BrdU) continuously for one week. Then the animals were sacrificed to take their brain tissue and blood. […]” for “group.”

[8] = system: BrdU and DCX-expressing cells in the hippocampus; test: Neurogenesis markers BrdU and DCX in hippocampus of D-galactose-induced mice (immunostaining); assay type: in vivo
Method: as §1
After observing the behavior, the animals of Example 6 are intraperitoneally injected with […] 5-bromo-2′-deoxyuridine (BrdU) continuously for a week. […] The sections were immunohistochemically stained by first reacting with the first antibody, doublecortin (DCX) (purchased from Abcam) and then with a fluorescence-labeled secondary antibody (purchased from Jackson Labs Technologies, Inc). […]

[9] = system: gamma amino butyric acid (GABA) metabolism; settings: An, et al (2003); cited from earlier work

| Structure (SMILES) | intracellular SA-β-gal (cell senescence level) (SH-SY5Y cells) | p53, p16, p21 protein expression [1] | cognitive behavioral deficit: construction of nests and burrowing [2] | cognitive behavioral deficit incl. memory learning ability; higher dose better improvement [3] | activity of catalase (CAT) (catalase (CAT)) | activity of superoxide dismutase (SOD) [4] | lipid peroxidation (malondialdehyde, MDA) [5] | level of glutathione peroxidation (GSH-Px) reduced by galactose [6] | level of glucose-6-phosphate dehydrogenase (G6PD) reduced by galactose [7] | expression of BrdU in the hippocampus [8] | expression of DCX in the hippocampus [8] | metabolism of GABA in gerbil hippocampus [9] |
| --- | --- | --- | --- | --- | --- | --- | --- | --- | --- | --- | --- | --- |
| OC[C@H]1O[C@@H](n2cnc3c(NCc4ccc(O)cc4)ncnc32)[C@H](O)[C@@H]1O [T1-11, N^6-(4-hydroxybenzyl) adenosine] | significantly reduce SA-β-gal | inhibition of p53, p16, p21 protein expression | effectively ameliorate the animal cognitive behavioral deficit | ameliorate cognitive behavioral deficit | significantly repaired the reduced activity | significantly repaired the reduced activity | significantly repaired | effectively reversed | effectively reversed | ameliorate the reduced expression | ameliorate the reduced expression |  |
| OCc1ccc(O[C@@H]2O[C@H](CO)[C@@H](O)[C@H](O)[C@H]2O)cc1 [gastrodin] |  |  |  |  |  |  |  |  |  |  |  | alter the metabolism of gamma amino butyric acid (GABA) |
